In PMC4405029 (Bioorganic & medicinal chemistry letters, 2015):

Assays:
Experiment in all cases: Electrical cell-substrate impedance sensing
Format in all cases: cell-based
[1] = test system: recombinant EP4 receptor; settings: ECIS, EP4 expressed in CHO cells
[2] = target: T1, recombinant EP1 receptor (Homo sapiens, UniProt P34995); settings: ECIS, EP1 expressed in CHO cells
T1 sequence (P34995 1-402): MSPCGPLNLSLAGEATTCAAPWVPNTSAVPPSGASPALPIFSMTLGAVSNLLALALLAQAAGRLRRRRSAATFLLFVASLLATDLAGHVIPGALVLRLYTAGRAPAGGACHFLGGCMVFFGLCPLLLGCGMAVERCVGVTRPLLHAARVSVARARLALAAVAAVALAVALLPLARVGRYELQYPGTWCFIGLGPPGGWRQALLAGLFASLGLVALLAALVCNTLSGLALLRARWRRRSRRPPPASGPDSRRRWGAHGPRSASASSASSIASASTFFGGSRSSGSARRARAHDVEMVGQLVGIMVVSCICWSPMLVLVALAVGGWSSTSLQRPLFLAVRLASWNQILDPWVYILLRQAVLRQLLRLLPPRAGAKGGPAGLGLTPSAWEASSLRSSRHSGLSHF

[3] = target: T2, recombinant EP3 receptor (Homo sapiens, UniProt P43115); settings: ECIS, EP3 expressed in CHO cells
T2 sequence (P43115 1-390): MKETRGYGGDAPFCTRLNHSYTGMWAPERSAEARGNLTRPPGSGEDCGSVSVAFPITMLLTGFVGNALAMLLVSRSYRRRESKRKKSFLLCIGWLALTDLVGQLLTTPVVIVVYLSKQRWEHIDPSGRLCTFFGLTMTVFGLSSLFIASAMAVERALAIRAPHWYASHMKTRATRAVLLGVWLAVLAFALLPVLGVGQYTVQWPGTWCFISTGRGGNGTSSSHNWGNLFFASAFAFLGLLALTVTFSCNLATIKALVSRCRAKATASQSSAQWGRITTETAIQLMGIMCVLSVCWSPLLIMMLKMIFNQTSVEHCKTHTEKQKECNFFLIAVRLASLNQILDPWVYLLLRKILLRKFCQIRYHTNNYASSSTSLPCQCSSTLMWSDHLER

Structure (SMILES)	Activation of EP4 receptor (cell impedance) [1]	Activation of EP1 receptor (cell impedance) [2]	Activation of EP3 receptor (cell impedance) [3]
CCCCC[C@H](O)/C=C/[C@H]1[C@H](O)CC(=O)[C@@H]1C/C=C\CCCC(=O)O [PGE2]	rapid change in impedance	rapid change in impedance	rapid change in impedance
O=C(CCC/C=C\C[C@H]1C(=O)C[C@@H](O)[C@@H]1/C=C/[C@@H](O)CCc1ccccc1)NCCO [12a]	did not activate	did not activate	did not activate
CCCCC[C@H](O)/C=C/[C@H]1[C@H](O)CC(=O)[C@@H]1C/C=C\CCCC(=O)NCCO [PGE2-EA, prostaglandin-ethanolamide]	did not activate	did not activate	did not activate
